Measured values taken from the supplement of paper PMC5908809.

Tests used:
[1] = tested on: normal NK cells expanded with K562-aAPC; assay: percent inhibition of viability; higher = more inhibition; details: 72 h, IL-2 2.5 ng/mL
Procedure: (§1)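 Drug sensitivity and resistance testing on K562-aAPC-expanded normal NK cells: 5 concentrations (10-fold steps over a 10,000-fold range), 72 h at 37 °C, viability by CellTiter-Glo normalised to DMSO and benzethonium chloride controls; DSS from the fitted curve.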

DERL-7 (IL-2 2.5 ng/mL) [2] = assay: as above; details: 72 h
IMC-1 (IL-2 20 ng/mL) [3] = assay: as above; details: 72 h
KAI3 (IL-2 2.5 ng/mL) [4] = assay: as above; details: 72 h
KHYG-1 (IL-2 2.5 ng/mL) [5] = assay: as above; details: 72 h
NK-92 (IL-2 2.5 ng/mL) [6] = assay: as above; details: 72 h
NK-YS (IL-2 2.5 ng/mL) [7] = assay: as above; details: 72 h
NKL (IL-2 2.5 ng/mL) [8] = assay: as above; details: 72 h
SNK-6 (IL-2 2.5 ng/mL) [9] = assay: as above; details: 72 h
YT (IL-2 2.5 ng/mL) [10] = assay: as above; details: 72 h
[11] = tested on: normal primary NK cells, pool 1 (3 donors) (IL-2 2.5 ng/mL); assay: as above; details: 72 h
[12] = tested on: normal primary NK cells, pool 1 (3 donors), resting (IL-2 0 ng/mL); assay: as above; details: 72 h
[13] = tested on: normal primary NK cells, pool 2 (3 donors) (IL-2 2.5 ng/mL); assay: as above; details: 72 h
[14] = tested on: normal primary NK cells, pool 3 (3 donors) (IL-2 2.5 ng/mL); assay: as above; details: 72 h
[15] = tested on: normal NK cells expanded with K562-aAPC; assay: drug sensitivity score (DSS) (DSS units); higher = more sensitive; extreme values may be limits of the assay; details: 72 h; IL-2 2.5 ng/mL
Procedure: as §1

DERL-7 (IL-2 2.5 ng/mL) [16] = assay: as above; details: 72 h
IMC-1 (IL-2 20 ng/mL) [17] = assay: as above; details: 72 h
KAI3 (IL-2 2.5 ng/mL) [18] = assay: as above; details: 72 h
KHYG-1 (IL-2 2.5 ng/mL) [19] = assay: as above; details: 72 h
NK-92 (IL-2 2.5 ng/mL) [20] = assay: as above; details: 72 h
NK-YS (IL-2 2.5 ng/mL) [21] = assay: as above; details: 72 h
NKL (IL-2 2.5 ng/mL) [22] = assay: as above; details: 72 h
SNK-6 (IL-2 2.5 ng/mL) [23] = assay: as above; details: 72 h
YT (IL-2 2.5 ng/mL) [24] = assay: as above; details: 72 h
[25] = tested on: normal primary NK cells, pool 1 (3 donors) (IL-2 2.5 ng/mL); assay: as above; details: 72 h
[26] = tested on: normal primary NK cells, pool 1 (3 donors), resting (IL-2 0 ng/mL); assay: as above; details: 72 h
[27] = tested on: normal primary NK cells, pool 2 (3 donors) (IL-2 2.5 ng/mL); assay: as above; details: 72 h
[28] = tested on: normal primary NK cells, pool 3 (3 donors) (IL-2 2.5 ng/mL); assay: as above; details: 72 h

O=C(NC[C@H](O)CO)c1ccncc1Nc1ccc(I)cc1F [Pimasertib] (max concentration tested 10000 nM)
percent inhibition of viability [%]
Details | 1 nM | 10 nM | 100 nM | 1000 nM | 10000 nM
DERL-7 (IL-2 2.5 ng/mL) [2] | 0.5 | 14.9 | 29.4 | 37.8 | 49.7
IMC-1 (IL-2 20 ng/mL) [3] | -6.58 | -3.26 | -9.96 | -4.58 | 5.6
KAI3 (IL-2 2.5 ng/mL) [4] | -9.91 | 7.15 | 14.8 | 26.4 | 27.1
KHYG-1 (IL-2 2.5 ng/mL) [5] | -2.11 | 9.27 | 31.9 | 59.1 | 61.3
NK-92 (IL-2 2.5 ng/mL) [6] | 6.11 | -18.6 | -12.1 | -18.6 | -16.4
NK-YS (IL-2 2.5 ng/mL) [7] | -5.36 | -3.17 | -0.42 | 15.1 | 19.9
NKL (IL-2 2.5 ng/mL) [8] | -5.35 | 10.9 | 45.4 | 63.2 | 66.3
SNK-6 (IL-2 2.5 ng/mL) [9] | -12.2 | -4.53 | -21 | -22.5 | -8.46
YT (IL-2 2.5 ng/mL) [10] | 0.32 | 1.92 | -0.1 | 10.8 | 10.6
[1] | 0.25 | -8.62 | 0.85 | 3.75 | 18
[11] | -8.76 | 5.99 | 2.83 | 15.8 | 22.1
[12] | 10.1 | -6.83 | -15.1 | 8.84 | 24.8
[13] | -12.9 | 1.34 | 0.74 | 1.01 | 13.2
[14] | -8.93 | -10.8 | -10.3 | -6.25 | 5.59

Details | drug sensitivity score
DERL-7 (IL-2 2.5 ng/mL) [16] | 11.6
IMC-1 (IL-2 20 ng/mL) [17] | 0
KAI3 (IL-2 2.5 ng/mL) [18] | 5.63
KHYG-1 (IL-2 2.5 ng/mL) [19] | 14.8
NK-92 (IL-2 2.5 ng/mL) [20] | 0
NK-YS (IL-2 2.5 ng/mL) [21] | 2.03
NKL (IL-2 2.5 ng/mL) [22] | 18.1
SNK-6 (IL-2 2.5 ng/mL) [23] | 0
YT (IL-2 2.5 ng/mL) [24] | 0.17
[15] | 0.89
[25] | 2.21
[26] | 2.06
[27] | 0.17
[28] | 0

C[C@@H](C(=O)O)c1ccc(-c2ccccc2)c(F)c1 [Tarenflurbil] (max concentration tested 10000 nM)
percent inhibition of viability [%]
Details | 1 nM | 10 nM | 100 nM | 1000 nM | 10000 nM
DERL-7 (IL-2 2.5 ng/mL) [2] | 4.46 | 2.02 | -0.14 | 2.03 | -3.24
IMC-1 (IL-2 20 ng/mL) [3] | -1.05 | 0.62 | -1.4 | -6.55 | 2.74
KAI3 (IL-2 2.5 ng/mL) [4] | -7.87 | -7.47 | 3.52 | 11.2 | 23.6
KHYG-1 (IL-2 2.5 ng/mL) [5] | -3.32 | -5.74 | 0.55 | -0.63 | 6.21
NK-92 (IL-2 2.5 ng/mL) [6] | -0.98 | -4.75 | -2.63 | 14.7 | 23.1
NK-YS (IL-2 2.5 ng/mL) [7] | -4.2 | -2.88 | 4.93 | 1.37 | 11.5
NKL (IL-2 2.5 ng/mL) [8] | -0.03 | -4.97 | 19.8 | 21.7 | 16.2
SNK-6 (IL-2 2.5 ng/mL) [9] | -1.12 | -28.7 | -23.7 | -16.9 | 14.1
YT (IL-2 2.5 ng/mL) [10] | -2.12 | -10.1 | 2.14 | 4.49 | 14.9
[1] | -6.17 | -4.88 | -3.95 | 0.95 | 3.26
[11] | 2 | 12.8 | 9.24 | 3.23 | 7.48
[12] | -0.07 | 18.2 | 4.52 | 11.8 | 8.75
[13] | -7.01 | 3.47 | 9.98 | 6.83 | 1.08
[14] | -14.1 | -0.87 | -2.01 | -2.07 | 2.43

Details | drug sensitivity score
DERL-7 (IL-2 2.5 ng/mL) [16] | 0
IMC-1 (IL-2 20 ng/mL) [17] | 0
KAI3 (IL-2 2.5 ng/mL) [18] | 1.72
KHYG-1 (IL-2 2.5 ng/mL) [19] | 0
NK-92 (IL-2 2.5 ng/mL) [20] | 2.36
NK-YS (IL-2 2.5 ng/mL) [21] | 0.07
NKL (IL-2 2.5 ng/mL) [22] | 5.13
SNK-6 (IL-2 2.5 ng/mL) [23] | 0.04
YT (IL-2 2.5 ng/mL) [24] | 0.47
[15] | 0
[25] | 0
[26] | 0.07
[27] | 0
[28] | 0

Cc1cccc(-c2nn3c(c2-c2ccnc4ccc(C(N)=O)cc24)CCC3)n1 [Galunisertib] (max concentration tested 1000 nM)
percent inhibition of viability [%]
Details | 0.1 nM | 1 nM | 10 nM | 100 nM | 1000 nM
DERL-7 (IL-2 2.5 ng/mL) [2] | 5.62 | 1.68 | 4.85 | -1.77 | 1.92
IMC-1 (IL-2 20 ng/mL) [3] | -7.13 | -0.55 | -5.27 | -8.99 | -4.14
KAI3 (IL-2 2.5 ng/mL) [4] | -4.52 | 0.48 | -2.74 | -1.09 | -2.65
KHYG-1 (IL-2 2.5 ng/mL) [5] | -4.42 | -0.98 | -7.17 | 0.3 | -1.95
NK-92 (IL-2 2.5 ng/mL) [6] | 6.42 | -19.6 | -7 | -11.1 | -5.09
NK-YS (IL-2 2.5 ng/mL) [7] | -4.82 | -4.05 | -5.75 | -3.29 | -5.06
NKL (IL-2 2.5 ng/mL) [8] | -14.8 | -16.4 | -19.5 | -16.8 | -23.6
SNK-6 (IL-2 2.5 ng/mL) [9] | 4.83 | 20.7 | 0 | -0.11 | -19.9
YT (IL-2 2.5 ng/mL) [10] | -3.06 | -2.63 | -3.58 | 1.78 | 1.58
[1] | -0.13 | -4.95 | -1.88 | -4.21 | -16.8
[11] | 0.38 | -7.01 | -9.1 | -2.92 | -15.2
[12] | -3.02 | -1.34 | -8.83 | 11.9 | 15
[13] | -8.56 | -7.94 | -11.5 | -15 | -20.2
[14] | -11 | -5.65 | -10 | -14.2 | -19.7

Details | drug sensitivity score
DERL-7 (IL-2 2.5 ng/mL) [16] | 0
IMC-1 (IL-2 20 ng/mL) [17] | 0
KAI3 (IL-2 2.5 ng/mL) [18] | 0
KHYG-1 (IL-2 2.5 ng/mL) [19] | 0
NK-92 (IL-2 2.5 ng/mL) [20] | 0
NK-YS (IL-2 2.5 ng/mL) [21] | 0
NKL (IL-2 2.5 ng/mL) [22] | 0
SNK-6 (IL-2 2.5 ng/mL) [23] | 0
YT (IL-2 2.5 ng/mL) [24] | 0
[15] | 0
[25] | 0
[26] | 1.02
[27] | 0
[28] | 0
